# In patent US12703836B2, “Mixture of compounds with high molecular weights, obtained from sugar cane wax (Saccharum officinarum L.)” (CENTRO NACIONAL DE INVESTIGACIONES CIENTÍFICAS, priority 2021, dated 2026):
# Key:
# [1] = tested on: plasma sulfhydryl (SH) groups; experiment: Plasma protein oxidation (sulfhydryl groups) after cerebral ischemia/reperfusion; assay type: in vivo, Mongolian gerbils; settings: gerbils, plasma after I/R; oral HMWS 200, AcGS 132, AlcG 40, AldG 28, AcGL 200, ASA 60 mg/kg
# Text: For the evaluation of the neuroprotective effect of the mixture of high molecular weight substances, the object of the present invention, an experimental model of global cerebral ischemia by occlusion and reperfusion of the carotid arteries was used. The composition of High Molecular Weight Substances (HMWS) obtained in example 1 was subjected to a preclinical test with animals, in which its pharmacological effect was compared with the effects of pure extracts of Fatty Acids in the form of Salts (AcGS), fatty alcohols (AlcG) and high molecular weight aldehydes (AldG), which were administered in the dose equivalent to the proportion in which each one is present in 200 mg/kg of the HMWS Active Ingredient. Furthermore, the effect of HMWS was compared with the effect of pure free fatty acid (AcGL) extract administered at equal doses. […] To determine lipid peroxidation, the formation of substances reactive to thiobarbituric acid (SRATB) was quantified (according to Ohkawa et al., 1979) in plasma, and was expressed as nmol malondialdehyde (MDA)/mg of protein. To determine protein oxidation, sulfhydryl (SH) groups were determined (technique described by Miao-Lin Hu, 1994). […] The absorbance of the supernatant was read at 412 nm. […] The protein concentration was determined by the modified Lowry method ([…], 1987).
# [2] = tested on: rabbits with spinal cord damage induced by Ischemia/Reperfusion (I/R); experiment: Mortality in spinal cord ischemia/reperfusion; assay type: in vivo, New Zealand rabbits; settings: oral for 10 days: HMWS 200, AcGS 132, AlcG 40, AldG 28, AcGL 200, ASA 2 mg/kg, positive control 80
# Description: The neuroprotective effect of the HMWS mixture, object of the present invention, was also investigated using an experimental model of induction of ischemia in the spinal cord. The composition obtained in example 2 was subjected to a preclinical test in which its pharmacological effect was compared with the effects of pure extracts of Fatty Acids in the form of Salts (AcGS), fatty alcohols (AlcG) and high molecular weight aldehydes (AldG), which were administered at doses equivalent to that of those respective substances in 200 mg/kg of the HMWS Active Ingredient. Furthermore, the effect of HMWS was compared with that of pure extract of free fatty acids (AcGL) administered at equal doses.
# Male New Zealand rabbits (1.8-2.2 kg) were used, which were adapted for 15 days to laboratory conditions (temperature of 20 to 25° C., relative humidity of 60±5%, light/dark cycles of 12 hours), with free access to water and food.
# The substances HMWS, AcGS, AlcG, AldG, AcGL and aspirin were prepared as suspensions in an acacia/water vehicle (1%). […]
# For the induction of ischemia in the spinal cord, the rabbits were anesthetized with thiopental (20 mg/kg i.v.). […] At 4 and 24 hours of reperfusion, the neurological deficit of the animals was blindly evaluated by 2 independent observers (according to Zivin et al., 1982). […]
# [3] = tested on: spinal cord of rabbits with Ischemia/Reperfusion (I/R); experiment: Histological score of the spinal cord after ischemia/reperfusion; assay type: in vivo, New Zealand rabbits; settings: oral for 10 days: HMWS 200, AcGS 132, AlcG 40, AldG 28, AcGL 200, ASA 60 (table) mg/kg
# Description: The substances HMWS, AcGS, AlcG, AldG, AcGL and aspirin were prepared as suspensions in an acacia/water vehicle (1%). Once the quarantine was completed, the rabbits were distributed into 8 groups: a negative control that only received vehicle and was not induced ischemia and 7 groups with spinal cord ischemia: a positive control treated only with the vehicle, and 6 groups were treated with HMWS (200 mg/kg), AcGS (132 mg/kg), AlcG (40 mg/kg), AldG (28 mg/kg), AcGL (200 mg/kg), and aspirin (2 mg/kg) as reference substance. All treatments were administered orally via intragastric tubing (1 mL/2 kg body weight) for 10 days.
# For the induction of ischemia in the spinal cord, the rabbits were anesthetized with thiopental (20 mg/kg i.v.). The abdomen was depilated, an antiseptic solution was applied, an incision was made in the ventral midline and the retroperitoneal space was penetrated. The aorta and left renal artery were dissected and exposed. The aorta was ligated by placing a clip immediately below the left renal artery for 20 minutes, after which it was removed and the reperfusion period began. […] At 4 and 24 hours of reperfusion, the neurological deficit of the animals was blindly evaluated by 2 independent observers (according to Zivin et al., 1982). […]
structure (smiles),measurement,setting,value
"CC(=O)Oc1ccccc1C(=O)O [ASA, aspirin]",Inhibition (%) of SH groups increase,[1],12%
same,Mortality 24 h (%),[2],40+ %
same,"Histologic Score (spinal cord, 3 = no injuries, 0 = severe)","[3]; 24 hours after reperfusion, positive control 0.00 ± 0.05",0.9 ± 0.15
same,Inhibition (%) of histological damage in the spinal cord,[3]; I/R,30%
